Source: patent US20080009418A1, “Selective Inhibitors” (Alchemia LTD., priority 2004, published 2008)

Key:
Human opioid (ORL1) = biological target: T1, Human opioid (ORL1) (Homo sapiens, UniProt P41146); experiment: Radioligand binding, human opioid ORL1 membranes, FlashPlate, [125I]-Nociceptin; conditions: compound at 10 μM; [125I]-Nociceptin
T1 construct: purchased Perkin Elmer Biosignal
Outline: (§1)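 Cloned human receptor membranes were coated onto FlashPlate wells and incubated with radioligand and compound (added from a 0.5 mM DMSO daughter plate) for 1 hour at room temperature in the dark. Scintillation counting gave percent inhibition, with DMSO defining total and reference ligand defining non-specific binding.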

Human μ-opioid (MOP) = biological target: T2, Human μ-opioid (MOP) (Homo sapiens, UniProt P35372); experiment: Radioligand binding, human μ-opioid (MOP) membranes, FlashPlate, [3H]-Naloxone; conditions: compound at 10 μM; [3H]-Naloxone
T2 construct: purchased Perkin Elmer Biosignal
T2 sequence (P35372 whole entry): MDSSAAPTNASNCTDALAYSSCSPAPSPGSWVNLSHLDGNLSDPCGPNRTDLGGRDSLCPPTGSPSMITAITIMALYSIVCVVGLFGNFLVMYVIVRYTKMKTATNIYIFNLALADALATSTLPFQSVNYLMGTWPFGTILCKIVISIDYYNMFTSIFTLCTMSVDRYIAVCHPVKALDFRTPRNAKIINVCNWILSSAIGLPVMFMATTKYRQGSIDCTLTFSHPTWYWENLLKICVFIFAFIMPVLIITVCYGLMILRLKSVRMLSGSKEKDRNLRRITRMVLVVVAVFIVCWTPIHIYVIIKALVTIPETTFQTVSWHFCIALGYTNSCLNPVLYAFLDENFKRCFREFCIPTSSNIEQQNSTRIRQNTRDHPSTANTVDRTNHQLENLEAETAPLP
Outline: as §1

Human Melanocortin (MC3) = biological target: T3, Human Melanocortin (MC3) (Homo sapiens, UniProt P41968); experiment: Radioligand binding, human melanocortin MC3 membranes, FlashPlate, [125I]-NDP-αMSH; conditions: compound at 10 μM; [125I]-NDP-αMSH
T3 construct: purchased Perkin Elmer Biosignal
T3 sequence (P41968 whole entry): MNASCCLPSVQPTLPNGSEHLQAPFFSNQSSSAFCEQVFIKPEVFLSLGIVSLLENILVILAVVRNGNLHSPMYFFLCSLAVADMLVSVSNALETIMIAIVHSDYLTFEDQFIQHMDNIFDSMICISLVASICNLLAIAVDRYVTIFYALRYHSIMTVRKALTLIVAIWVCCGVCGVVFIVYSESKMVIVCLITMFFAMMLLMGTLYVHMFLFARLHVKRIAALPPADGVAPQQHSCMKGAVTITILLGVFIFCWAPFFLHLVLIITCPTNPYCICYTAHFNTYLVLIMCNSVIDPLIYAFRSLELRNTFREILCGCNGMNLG
Outline: as §1

Mouse urotensin (mUR2) = biological target: T4, Mouse urotensin (mUR2) (Mus musculus, UniProt Q8VIH9); experiment: Radioligand binding, mouse urotensin mUR2 membranes, FlashPlate, [125I]-Urotensin II; conditions: compound at 10 μM; [125I]-Urotensin II
T4 construct: purchased Perkin Elmer Biosignal
T4 sequence (Q8VIH9 1-385): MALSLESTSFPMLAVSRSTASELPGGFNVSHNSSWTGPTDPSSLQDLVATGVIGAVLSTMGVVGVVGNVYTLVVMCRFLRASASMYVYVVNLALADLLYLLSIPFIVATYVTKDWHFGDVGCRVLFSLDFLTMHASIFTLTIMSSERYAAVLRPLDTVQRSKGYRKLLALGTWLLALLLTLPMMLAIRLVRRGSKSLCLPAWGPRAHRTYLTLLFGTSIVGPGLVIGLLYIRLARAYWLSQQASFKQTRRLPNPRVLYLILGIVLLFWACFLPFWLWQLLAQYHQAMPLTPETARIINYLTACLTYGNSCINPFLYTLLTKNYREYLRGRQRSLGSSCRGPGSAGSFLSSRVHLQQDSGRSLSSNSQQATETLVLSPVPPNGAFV
Outline: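 Cloned mouse urotensin (mUR2) receptor membranes from Perkin Elmer Biosignal were immobilized in FlashPlate microplates using a proprietary coating. Each well got 19.5 μl buffer, then 0.5 μl of DMSO, reference ligand, or compound. Adding 5 μl of [125I]-Urotensin II, diluted to 5× final concentration in binding buffer, started binding. Plates were sealed with TopSeal-A and incubated 1 hour at room temperature in the dark. Wells were counted for 30 seconds each on a TopCount after a 60-second delay, and percentage inhibition was calculated.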

Human melanocortin (MC5) = biological target: T5, Human melanocortin (MC5) (Homo sapiens, UniProt P33032); experiment: Radioligand binding, human melanocortin MC5 membranes, FlashPlate, [125I]-NDP-αMSH; conditions: compound at 10 μM; [125I]-NDP-αMSH
T5 construct: purchased Perkin Elmer Biosignal
T5 sequence (P33032 whole entry): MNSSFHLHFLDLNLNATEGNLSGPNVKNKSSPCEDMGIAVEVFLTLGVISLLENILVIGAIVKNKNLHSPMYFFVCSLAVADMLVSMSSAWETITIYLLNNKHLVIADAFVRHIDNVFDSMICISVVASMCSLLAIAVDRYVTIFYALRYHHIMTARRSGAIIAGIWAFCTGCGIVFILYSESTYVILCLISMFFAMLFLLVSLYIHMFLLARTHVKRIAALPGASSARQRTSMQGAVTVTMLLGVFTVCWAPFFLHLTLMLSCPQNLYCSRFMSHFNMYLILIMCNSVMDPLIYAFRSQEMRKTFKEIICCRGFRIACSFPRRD
Outline: as §1

Human κ-Opioid (KOP) = biological target: T6, Human κ-Opioid (KOP) (Homo sapiens, UniProt P41145); experiment: Radioligand binding, human κ-opioid (KOP) membranes, filtration, [3H]-Diprenorphine; conditions: compound at 10 μM; [3H]-Diprenorphine
T6 construct: purchased Perkin Elmer Biosignal
T6 sequence (P41145 whole entry): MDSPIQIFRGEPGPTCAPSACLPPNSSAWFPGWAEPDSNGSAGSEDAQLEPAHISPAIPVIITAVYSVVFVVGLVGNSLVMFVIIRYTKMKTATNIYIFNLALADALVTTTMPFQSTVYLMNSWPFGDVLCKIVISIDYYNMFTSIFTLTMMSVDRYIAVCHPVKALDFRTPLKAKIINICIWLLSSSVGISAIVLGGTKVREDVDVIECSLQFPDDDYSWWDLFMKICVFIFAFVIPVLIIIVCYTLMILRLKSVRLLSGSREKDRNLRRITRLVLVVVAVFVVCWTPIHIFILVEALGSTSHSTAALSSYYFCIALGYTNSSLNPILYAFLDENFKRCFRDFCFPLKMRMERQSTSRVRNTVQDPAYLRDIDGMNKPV
Outline: (§2)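 Filtration binding on cloned human receptor membranes (1 Unit/well), [125I]-Substance P for NK1 and [3H]-Diprenorphine for KOP, 1 h at room temperature. Filters PEI-presoaked, washed with cold 50 mM Tris-HCl pH 7.4, counted by scintillation; percent inhibition calculated, reference ligand defining non-specific binding.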

Human δ-opioid (DOP) = biological target: T7, Human δ-opioid (DOP) (Homo sapiens, UniProt P41143); experiment: Radioligand binding, human δ-opioid (DOP) membranes, FlashPlate, [3H]-Bremazocine; conditions: compound at 10 μM; [3H]-Bremazocine
T7 construct: purchased Perkin Elmer Biosignal
T7 sequence (P41143 whole entry): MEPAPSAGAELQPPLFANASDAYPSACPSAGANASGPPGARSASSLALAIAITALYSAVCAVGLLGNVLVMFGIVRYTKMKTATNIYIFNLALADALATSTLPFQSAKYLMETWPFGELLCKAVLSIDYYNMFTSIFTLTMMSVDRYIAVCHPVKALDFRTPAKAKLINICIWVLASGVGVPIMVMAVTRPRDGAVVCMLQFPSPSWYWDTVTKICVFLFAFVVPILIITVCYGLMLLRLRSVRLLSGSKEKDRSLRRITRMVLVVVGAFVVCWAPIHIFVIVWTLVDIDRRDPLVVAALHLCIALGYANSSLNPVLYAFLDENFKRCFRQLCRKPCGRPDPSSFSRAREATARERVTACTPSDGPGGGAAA
Outline: as §1

[1] = biological target: T8, Human neuropeptide Y (NPY-Y1) (Homo sapiens, UniProt P25929); experiment: Radioligand binding, human neuropeptide Y NPY-Y1 membranes, FlashPlate, [125I]-PYY; conditions: compound at 10 μM; [125I]-PYY
T8 construct: purchased Perkin Elmer Biosignal
T8 sequence (P25929 1-384): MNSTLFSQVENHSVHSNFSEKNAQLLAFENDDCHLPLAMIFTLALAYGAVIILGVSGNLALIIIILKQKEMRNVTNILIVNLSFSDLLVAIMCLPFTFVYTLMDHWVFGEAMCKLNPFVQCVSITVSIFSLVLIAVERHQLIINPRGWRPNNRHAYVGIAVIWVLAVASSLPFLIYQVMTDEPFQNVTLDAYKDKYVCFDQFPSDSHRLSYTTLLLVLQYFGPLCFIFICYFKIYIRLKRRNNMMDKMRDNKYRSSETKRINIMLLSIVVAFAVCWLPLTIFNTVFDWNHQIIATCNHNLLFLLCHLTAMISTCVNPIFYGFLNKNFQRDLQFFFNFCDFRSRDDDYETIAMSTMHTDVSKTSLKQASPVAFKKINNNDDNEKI
Outline: as §1

Human neurokinin (NK1) = biological target: T9, Human neurokinin (NK1) (Homo sapiens, UniProt P25103); experiment: Radioligand binding, human neurokinin NK1 membranes, filtration, [125I]-Substance P; conditions: compound at 10 μM; [125I]-Substance P
T9 construct: purchased Perkin Elmer Biosignal
T9 sequence (P25103 whole entry): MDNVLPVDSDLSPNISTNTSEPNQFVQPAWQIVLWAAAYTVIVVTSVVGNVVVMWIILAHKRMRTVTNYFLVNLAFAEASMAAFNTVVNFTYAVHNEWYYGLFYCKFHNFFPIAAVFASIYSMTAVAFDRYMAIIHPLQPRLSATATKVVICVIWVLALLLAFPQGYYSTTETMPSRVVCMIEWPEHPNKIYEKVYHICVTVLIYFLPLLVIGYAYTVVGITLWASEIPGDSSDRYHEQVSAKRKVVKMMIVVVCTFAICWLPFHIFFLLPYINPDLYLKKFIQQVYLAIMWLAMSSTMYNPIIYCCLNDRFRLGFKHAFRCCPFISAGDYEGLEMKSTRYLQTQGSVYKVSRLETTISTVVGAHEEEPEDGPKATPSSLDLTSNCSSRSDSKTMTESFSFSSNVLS
Outline: as §2

[2] = biological target: T10, Human melanin-concentrating hormone (MCH1) (Homo sapiens, UniProt Q99705); experiment: Radioligand binding, human melanin-concentrating hormone MCH1 membranes, FlashPlate, [125I]-S36057; conditions: compound at 10 μM; [125I]-S36057
T10 construct: purchased Perkin Elmer Biosignal
T10 sequence (Q99705 whole entry): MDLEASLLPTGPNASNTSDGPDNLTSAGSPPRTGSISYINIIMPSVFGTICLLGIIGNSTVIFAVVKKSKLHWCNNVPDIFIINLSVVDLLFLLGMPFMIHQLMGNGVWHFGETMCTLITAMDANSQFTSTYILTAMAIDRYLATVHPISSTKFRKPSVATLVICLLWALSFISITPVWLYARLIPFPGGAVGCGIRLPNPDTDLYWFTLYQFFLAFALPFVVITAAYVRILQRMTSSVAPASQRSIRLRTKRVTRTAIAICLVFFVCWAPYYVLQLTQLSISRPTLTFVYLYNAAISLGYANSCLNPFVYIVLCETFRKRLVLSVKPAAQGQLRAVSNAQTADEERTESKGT
Outline: as §1

Human Melanocortin (MC4) = biological target: T11, Human Melanocortin (MC4) (Homo sapiens, UniProt P32245); experiment: Radioligand binding, human melanocortin MC4 membranes, FlashPlate, [125I]-NDP-αMSH; conditions: compound at 10 μM; [125I]-NDP-αMSH
T11 construct: purchased Perkin Elmer Biosignal
T11 sequence (P32245 whole entry): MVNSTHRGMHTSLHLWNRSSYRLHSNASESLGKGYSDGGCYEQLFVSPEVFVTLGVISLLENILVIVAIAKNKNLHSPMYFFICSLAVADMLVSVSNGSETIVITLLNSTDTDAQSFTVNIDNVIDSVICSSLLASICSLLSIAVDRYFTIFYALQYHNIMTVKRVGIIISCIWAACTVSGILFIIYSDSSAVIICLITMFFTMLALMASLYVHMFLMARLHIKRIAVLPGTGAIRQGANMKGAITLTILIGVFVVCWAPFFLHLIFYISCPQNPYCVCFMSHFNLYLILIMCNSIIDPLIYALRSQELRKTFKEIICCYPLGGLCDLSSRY
Outline: as §1

T1 sequence (P41146 whole entry): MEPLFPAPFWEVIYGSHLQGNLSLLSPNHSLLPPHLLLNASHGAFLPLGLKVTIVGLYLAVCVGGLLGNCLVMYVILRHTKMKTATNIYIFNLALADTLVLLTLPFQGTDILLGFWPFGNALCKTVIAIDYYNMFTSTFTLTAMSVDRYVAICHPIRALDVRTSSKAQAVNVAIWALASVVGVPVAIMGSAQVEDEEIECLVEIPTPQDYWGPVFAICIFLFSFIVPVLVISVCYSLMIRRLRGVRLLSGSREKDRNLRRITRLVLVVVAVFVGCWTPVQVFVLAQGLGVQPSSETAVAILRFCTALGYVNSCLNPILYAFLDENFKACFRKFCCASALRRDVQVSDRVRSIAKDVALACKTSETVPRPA

With `NCCCC(=O)NC1C(OCc2ccccc2)OC(COCc2ccccc2)C(O)C1OCc1ccc2ccccc2c1` (stereo not drawn) [compound 376] the “A10: inhibition of radioligand binding, human opioid (ORL1)” value (shortened to “A10: inhibition of radioligand binding”) (Human opioid (ORL1)) was “− (“−” indicates less than 50% inhibition at 10 μM)”, the “A7: inhibition of radioligand binding, human μ-opioid (MOP)” value (from here on “A7: inhibition of radioligand binding”) (Human μ-opioid (MOP)) was “− (“−” indicates less than 50% inhibition at 10 μM)” and the “A3: inhibition of radioligand binding, human melanocortin (MC3)” value (from here on “A3: inhibition of radioligand binding”) (Human Melanocortin (MC3)) was “− (“−” indicates less than 50% inhibition at 10 μM)”. The “A11: inhibition of radioligand binding, mouse urotensin (mUR2)” value (from here on “A11: inhibition of radioligand binding”) (Mouse urotensin (mUR2)) was “− (“−” indicates less than 50% inhibition at 10 μM)”, the “A5: inhibition of radioligand binding, human melanocortin (MC5)” value (shortened to “A5: inhibition of radioligand binding”) (Human melanocortin (MC5)) was “+ (“+” indicates greater than 50% inhibition at 10 μM)” and the “A2: inhibition of radioligand binding, human κ-opioid (KOP)” value (shortened to “A2: inhibition of radioligand binding”) (Human κ-Opioid (KOP)) was “− (“−” indicates less than 50% inhibition at 10 μM)”. The “A1: inhibition of radioligand binding, human δ-opioid (DOP)” value (shortened to “A1: inhibition … human δ-opioid (DOP)”) (Human δ-opioid (DOP)) was “− (“−” indicates less than 50% inhibition at 10 μM)”, the “A9: inhibition of radioligand binding, human neuropeptide Y (NPY-Y1)” value (shortened to “A9: inhibition of radioligand binding”) [1] was “− (“−” indicates less than 50% inhibition at 10 μM)” and the “A8: inhibition of radioligand binding, human neurokinin (NK1)” value (“A8: inhibition of radioligand binding” for short) (Human neurokinin (NK1)) was “+ (“+” indicates greater than 50% inhibition at 10 μM)”. For the same compound, the “A6: inhibition of radioligand binding, human melanin-concentrating hormone (MCH1)” value (from here on “A6: inhibition of radioligand binding”) [2] was “− (“−” indicates less than 50% inhibition at 10 μM)” and the “A4: inhibition of radioligand binding, human melanocortin (MC4)” value (from here on “A4: inhibition of radioligand binding”) (Human Melanocortin (MC4)) was “+ (“+” indicates greater than 50% inhibition at 10 μM)”.

`NCCCC(=O)NC1C(OCc2ccccc2)OC(COCc2ccc(Cl)cc2)C(O)C1OCc1ccc2ccccc2c1` (stereo not drawn) [compound 377] was tested, and the “A10: inhibition of radioligand binding” value (Human opioid (ORL1)) was “− (“−” indicates less than 50% inhibition at 10 μM)”, the “A7: inhibition of radioligand binding” value (Human μ-opioid (MOP)) was “− (“−” indicates less than 50% inhibition at 10 μM)” and the “A3: inhibition of radioligand binding” value (Human Melanocortin (MC3)) was “+ (“+” indicates greater than 50% inhibition at 10 μM)”. For the same compound, the “A11: inhibition of radioligand binding” value (Mouse urotensin (mUR2)) was “− (“−” indicates less than 50% inhibition at 10 μM)”, the “A5: inhibition of radioligand binding” value (Human melanocortin (MC5)) was “+ (“+” indicates greater than 50% inhibition at 10 μM)” and the “A2: inhibition of radioligand binding” value (Human κ-Opioid (KOP)) was “− (“−” indicates less than 50% inhibition at 10 μM)”. The “A1: inhibition … human δ-opioid (DOP)” value (Human δ-opioid (DOP)) was “− (“−” indicates less than 50% inhibition at 10 μM)”, the “A9: inhibition of radioligand binding” value [1] was “− (“−” indicates less than 50% inhibition at 10 μM)” and the “A8: inhibition of radioligand binding” value (Human neurokinin (NK1)) was “+ (“+” indicates greater than 50% inhibition at 10 μM)”. The “A6: inhibition of radioligand binding” value [2] was “− (“−” indicates less than 50% inhibition at 10 μM)” and the “A4: inhibition of radioligand binding” value (Human Melanocortin (MC4)) was “+ (“+” indicates greater than 50% inhibition at 10 μM)”.

For `NCCCC(=O)NC1C(OCc2ccccc2)OC(COCc2ccc3ccccc3c2)C(O)C1OCc1ccccc1` (stereo not drawn) [compound 378], the “A10: inhibition of radioligand binding” value (Human opioid (ORL1)) was “− (“−” indicates less than 50% inhibition at 10 μM)”, the “A7: inhibition of radioligand binding” value (Human μ-opioid (MOP)) was “− (“−” indicates less than 50% inhibition at 10 μM)” and the “A3: inhibition of radioligand binding” value (Human Melanocortin (MC3)) was “− (“−” indicates less than 50% inhibition at 10 μM)”. For the same compound, the “A11: inhibition of radioligand binding” value (Mouse urotensin (mUR2)) was “− (“−” indicates less than 50% inhibition at 10 μM)”, the “A5: inhibition of radioligand binding” value (Human melanocortin (MC5)) was “+ (“+” indicates greater than 50% inhibition at 10 μM)” and the “A2: inhibition of radioligand binding” value (Human κ-Opioid (KOP)) was “− (“−” indicates less than 50% inhibition at 10 μM)”. The “A1: inhibition … human δ-opioid (DOP)” value (Human δ-opioid (DOP)) was “− (“−” indicates less than 50% inhibition at 10 μM)”, the “A9: inhibition of radioligand binding” value [1] was “− (“−” indicates less than 50% inhibition at 10 μM)” and the “A8: inhibition of radioligand binding” value (Human neurokinin (NK1)) was “+ (“+” indicates greater than 50% inhibition at 10 μM)”. The “A6: inhibition of radioligand binding” value [2] was “− (“−” indicates less than 50% inhibition at 10 μM)” and the “A4: inhibition of radioligand binding” value (Human Melanocortin (MC4)) was “+ (“+” indicates greater than 50% inhibition at 10 μM)”.
